Legend:
[1] = PBS/n-octanol distribution coefficient (logD); type: physicochemical; settings: PBS pH 7.4/n-octanol
[2] = test system: PC3-PIP/flu tumor-bearing mice; experiment: Biodistribution studies; type: in vivo, BALB/c nude mice

O=C([O-])CN1CCN(CC(=O)[O-])CCN(CC(=O)NCC2CCC(C(=O)NC(Cc3ccc4ccccc4c3)C(=O)NCCCCC(NC(=O)NC(CCC(=O)O)C(=O)O)C(=O)O)CC2)CCN(CC(=O)[O-])CC1.[225Ac+3] (centres unmarked) [[^225Ac]Ac-PSMA-617]
logD value [1]: ≤ −3.9 | Blood, accumulated activity ([2]; 1 h p.i.): 0.62 ± 0.12 % IA/g | Bone, accumulated activity ([2]; 1 h p.i.): 0.46 ± 0.13 % IA/g | Heart, accumulated activity ([2]; 1 h p.i.): 0.35 ± 0.09 % IA/g | Intestines, accumulated activity ([2]; 1 h p.i.): 0.29 ± 0.12 % IA/g | Kidneys, accumulated activity ([2]; 1 h p.i.): 12 ± 3 % IA/g | Liver, accumulated activity ([2]; 1 h p.i.): 0.46 ± 0.10 % IA/g | Lung, accumulated activity ([2]; 1 h p.i.): 0.76 ± 0.23 % IA/g | Muscle, accumulated activity ([2]; 1 h p.i.): 0.18 ± 0.06 % IA/g | PC-3 PIP tumor, accumulated activity ([2]; 1 h p.i.): 46 ± 13 % IA/g | PC-3 flu tumor, accumulated activity ([2]; 1 h p.i.): 0.30 ± 0.06 % IA/g | Salivary glands, accumulated activity ([2]; 1 h p.i.): 0.30 ± 0.06 % IA/g | Spleen, accumulated activity ([2]; 1 h p.i.): 0.68 ± 0.09 % IA/g | Stomach, accumulated activity ([2]; 1 h p.i.): 0.37 ± 0.14 % IA/g | Tumor-to-blood ratio ([2]; 1 h p.i.): 73 ± 7 | Tumor-to-kidney ratio ([2]; 1 h p.i.): 3.7 ± 0.3 | Tumor-to-liver ratio ([2]; 1 h p.i.): 99 ± 8 | Blood, accumulated activity ([2]; 4 h p.i.): ≤ 0.10 % IA/g | Bone, accumulated activity ([2]; 4 h p.i.): 0.14 ± 0.04 % IA/g | Heart, accumulated activity ([2]; 4 h p.i.): ≤ 0.10 % IA/g | Intestines, accumulated activity ([2]; 4 h p.i.): ≤ 0.10 % IA/g | Kidneys, accumulated activity ([2]; 4 h p.i.): 3.5 ± 0.6 % IA/g | Liver, accumulated activity ([2]; 4 h p.i.): 0.31 ± 0.04 % IA/g | Lung, accumulated activity ([2]; 4 h p.i.): ≤ 0.10 % IA/g | Muscle, accumulated activity ([2]; 4 h p.i.): ≤ 0.10 % IA/g | PC-3 PIP tumor, accumulated activity ([2]; 4 h p.i.): 43 ± 10 % IA/g | PC-3 flu tumor, accumulated activity ([2]; 4 h p.i.): 0.11 ± 0.02 % IA/g | Salivary glands, accumulated activity ([2]; 4 h p.i.): ≤ 0.10 % IA/g | Spleen, accumulated activity ([2]; 4 h p.i.): 0.12 ± 0.05 % IA/g | Stomach, accumulated activity ([2]; 4 h p.i.): ≤ 0.10 % IA/g | Tumor-to-blood ratio ([2]; 4 h p.i.): 2593 ± 825 | Tumor-to-kidney ratio ([2]; 4 h p.i.): 13 ± 4 | Tumor-to-liver ratio ([2]; 4 h p.i.): 142 ± 23 | Blood, accumulated activity ([2]; 24 h p.i.): ≤ 0.10 % IA/g | Bone, accumulated activity ([2]; 24 h p.i.): 0.11 ± 0.01 % IA/g | Heart, accumulated activity ([2]; 24 h p.i.): ≤ 0.10 % IA/g | Intestines, accumulated activity ([2]; 24 h p.i.): ≤ 0.10 % IA/g | Kidneys, accumulated activity ([2]; 24 h p.i.): 1.2 ± 0.2 % IA/g | Liver, accumulated activity ([2]; 24 h p.i.): 0.39 ± 0.06 % IA/g | Lung, accumulated activity ([2]; 24 h p.i.): ≤ 0.10 % IA/g | Muscle, accumulated activity ([2]; 24 h p.i.): ≤ 0.10 % IA/g | PC-3 PIP tumor, accumulated activity ([2]; 24 h p.i.): 37 ± 9 % IA/g | PC-3 flu tumor, accumulated activity ([2]; 24 h p.i.): 0.11 ± 0.08 % IA/g | Salivary glands, accumulated activity ([2]; 24 h p.i.): ≤ 0.10 % IA/g | Spleen, accumulated activity ([2]; 24 h p.i.): 0.13 ± 0.04 % IA/g | Stomach, accumulated activity ([2]; 24 h p.i.): ≤ 0.10 % IA/g | Tumor-to-blood ratio ([2]; 24 h p.i.): 4991 ± 3208 | Tumor-to-kidney ratio ([2]; 24 h p.i.): 33 ± 9 | Tumor-to-liver ratio ([2]; 24 h p.i.): 97 ± 20 | Blood, accumulated activity ([2]; 48 h p.i.): ≤ 0.10 % IA/g | Bone, accumulated activity ([2]; 48 h p.i.): 0.12 ± 0.04 % IA/g | Heart, accumulated activity ([2]; 48 h p.i.): ≤ 0.10 % IA/g | Intestines, accumulated activity ([2]; 48 h p.i.): ≤ 0.10 % IA/g | Kidneys, accumulated activity ([2]; 48 h p.i.): 0.79 ± 0.13 % IA/g | Liver, accumulated activity ([2]; 48 h p.i.): 0.44 ± 0.16 % IA/g | Lung, accumulated activity ([2]; 48 h p.i.): ≤ 0.10 % IA/g | Muscle, accumulated activity ([2]; 48 h p.i.): ≤ 0.10 % IA/g | PC-3 PIP tumor, accumulated activity ([2]; 48 h p.i.): 31 ± 3 % IA/g | PC-3 flu tumor, accumulated activity ([2]; 48 h p.i.): 0.26 ± 0.4 % IA/g | Salivary glands, accumulated activity ([2]; 48 h p.i.): ≤ 0.10 % IA/g | Spleen, accumulated activity ([2]; 48 h p.i.): 0.13 ± 0.02 % IA/g | Stomach, accumulated activity ([2]; 48 h p.i.): ≤ 0.10 % IA/g | Tumor-to-blood ratio ([2]; 48 h p.i.): 1716 ± 860 | Tumor-to-kidney ratio ([2]; 48 h p.i.): 37 ± 6 | Tumor-to-liver ratio ([2]; 48 h p.i.): 68 ± 15

CC(C)Cc1ccc(C(C)C(=O)NC(CCN)C(=O)NCCCCC(NC(=O)CN2CCN(CC(=O)[O-])CCN(CC(=O)[O-])CCN(CC(=O)[O-])CC2)C(=O)NCC2CCC(C(=O)NC(Cc3ccc4ccccc4c3)C(=O)NCCCCC(NC(=O)NC(CCC(=O)O)C(=O)O)C(=O)O)CC2)cc1.[225Ac+3] (centres unmarked) [[^225Ac]Ac-SibuDAB]
logD value [1]: −2.5 ± 0.1 | Blood, accumulated activity ([2]; 1 h p.i.): 23 ± 2 % IA/g | Bone, accumulated activity ([2]; 1 h p.i.): 2.5 ± 0.2 % IA/g | Heart, accumulated activity ([2]; 1 h p.i.): 7.4 ± 0.9 % IA/g | Intestines, accumulated activity ([2]; 1 h p.i.): 2.6 ± 0.5 % IA/g | Kidneys, accumulated activity ([2]; 1 h p.i.): 18 ± 1 % IA/g | Liver, accumulated activity ([2]; 1 h p.i.): 4.4 ± 0.4 % IA/g | Lung, accumulated activity ([2]; 1 h p.i.): 19 ± 2 % IA/g | Muscle, accumulated activity ([2]; 1 h p.i.): 2.0 ± 0.4 % IA/g | PC-3 PIP tumor, accumulated activity ([2]; 1 h p.i.): 20 ± 2 % IA/g | PC-3 flu tumor, accumulated activity ([2]; 1 h p.i.): 4.2 ± 1.1 % IA/g | Salivary glands, accumulated activity ([2]; 1 h p.i.): 4.7 ± 0.4 % IA/g | Spleen, accumulated activity ([2]; 1 h p.i.): 3.5 ± 0.3 % IA/g | Stomach, accumulated activity ([2]; 1 h p.i.): 2.4 ± 0.4 % IA/g | Tumor-to-blood ratio ([2]; 1 h p.i.): 0.9 ± 0.1 | Tumor-to-kidney ratio ([2]; 1 h p.i.): 1.2 ± 0.1 | Tumor-to-liver ratio ([2]; 1 h p.i.): 4.6 ± 0.5 | Blood, accumulated activity ([2]; 4 h p.i.): 16 ± 2 % IA/g | Bone, accumulated activity ([2]; 4 h p.i.): 2.2 ± 0.5 % IA/g | Heart, accumulated activity ([2]; 4 h p.i.): 5.5 ± 0.7 % IA/g | Intestines, accumulated activity ([2]; 4 h p.i.): 2.2 ± 0.3 % IA/g | Kidneys, accumulated activity ([2]; 4 h p.i.): 19 ± 1 % IA/g | Liver, accumulated activity ([2]; 4 h p.i.): 4.0 ± 0.3 % IA/g | Lung, accumulated activity ([2]; 4 h p.i.): 10 ± 2 % IA/g | Muscle, accumulated activity ([2]; 4 h p.i.): 1.9 ± 0.2 % IA/g | PC-3 PIP tumor, accumulated activity ([2]; 4 h p.i.): 45 ± 5 % IA/g | PC-3 flu tumor, accumulated activity ([2]; 4 h p.i.): 4.1 ± 0.8 % IA/g | Salivary glands, accumulated activity ([2]; 4 h p.i.): 3.7 ± 0.2 % IA/g | Spleen, accumulated activity ([2]; 4 h p.i.): 3.0 ± 0.5 % IA/g | Stomach, accumulated activity ([2]; 4 h p.i.): 1.8 ± 0.3 % IA/g | Tumor-to-blood ratio ([2]; 4 h p.i.): 2.9 ± 0.3 | Tumor-to-kidney ratio ([2]; 4 h p.i.): 2.3 ± 0.1 | Tumor-to-liver ratio ([2]; 4 h p.i.): 11 ± 1 | Blood, accumulated activity ([2]; 24 h p.i.): 3.3 ± 0.7 % IA/g | Bone, accumulated activity ([2]; 24 h p.i.): 0.81 ± 0.10 % IA/g | Heart, accumulated activity ([2]; 24 h p.i.): 1.5 ± 0.4 % IA/g | Intestines, accumulated activity ([2]; 24 h p.i.): 0.85 ± 0.14 % IA/g | Kidneys, accumulated activity ([2]; 24 h p.i.): 18 ± 2 % IA/g | Liver, accumulated activity ([2]; 24 h p.i.): 3.3 ± 0.4 % IA/g | Lung, accumulated activity ([2]; 24 h p.i.): 2.9 ± 0.4 % IA/g | Muscle, accumulated activity ([2]; 24 h p.i.): 0.58 ± 0.06 % IA/g | PC-3 PIP tumor, accumulated activity ([2]; 24 h p.i.): 80 ± 8 % IA/g | PC-3 flu tumor, accumulated activity ([2]; 24 h p.i.): 2.4 ± 0.9 % IA/g | Salivary glands, accumulated activity ([2]; 24 h p.i.): 1.7 ± 0.2 % IA/g | Spleen, accumulated activity ([2]; 24 h p.i.): 2.3 ± 0.5 % IA/g | Stomach, accumulated activity ([2]; 24 h p.i.): 0.72 ± 0.14 % IA/g | Tumor-to-blood ratio ([2]; 24 h p.i.): 25 ± 6 | Tumor-to-kidney ratio ([2]; 24 h p.i.): 4.7 ± 0.9 | Tumor-to-liver ratio ([2]; 24 h p.i.): 25 ± 5 | Blood, accumulated activity ([2]; 48 h p.i.): 1.1 ± 0.2 % IA/g | Bone, accumulated activity ([2]; 48 h p.i.): 0.48 ± 0.09 % IA/g | Heart, accumulated activity ([2]; 48 h p.i.): 0.73 ± 0.17 % IA/g | Intestines, accumulated activity ([2]; 48 h p.i.): 0.40 ± 0.08 % IA/g | Kidneys, accumulated activity ([2]; 48 h p.i.): 8.6 ± 1.1 % IA/g | Liver, accumulated activity ([2]; 48 h p.i.): 2.7 ± 0.5 % IA/g | Lung, accumulated activity ([2]; 48 h p.i.): 1.3 ± 0.3 % IA/g | Muscle, accumulated activity ([2]; 48 h p.i.): 0.30 ± 0.11 % IA/g | PC-3 PIP tumor, accumulated activity ([2]; 48 h p.i.): 64 ± 11 % IA/g | PC-3 flu tumor, accumulated activity ([2]; 48 h p.i.): 1.5 ± 0.4 % IA/g | Salivary glands, accumulated activity ([2]; 48 h p.i.): 0.92 ± 0.19 % IA/g | Spleen, accumulated activity ([2]; 48 h p.i.): 1.9 ± 0.5 % IA/g | Stomach, accumulated activity ([2]; 48 h p.i.): 0.38 ± 0.04 % IA/g | Tumor-to-blood ratio ([2]; 48 h p.i.): 62 ± 11 | Tumor-to-kidney ratio ([2]; 48 h p.i.): 7.4 ± 1.3 | Tumor-to-liver ratio ([2]; 48 h p.i.): 24 ± 4 | tumor uptake, higher than for [225Ac]Ac-PSMA-617 ([2]; 48 h p.i., PC-3 PIP tumor): 2 fold
